Measurements: publication PMC7939386 (The Journal of Biological Chemistry, 2021)

What was measured:
[1] = biological target: T1, KIF1A-560-GFP (Rattus norvegicus, UniProt F1M4A4); assay: single-molecule TIRF microtubule off-rate versus [ADP], hyperbolic fit; type: binding; conditions: motor bound to Taxol-stabilized microtubules; BRB80 (80 mM PIPES, pH 6.9), 25 °C; fit ± 95% CI; authors equate K0.5 with KD
T1 construct: motor head and neck linker, residues 1-368, followed by Drosophila melanogaster KHC neck coil and coil-1 (216 residues by b8; b50 says additional 216 residues), C-terminal GFP and His6; bacterial expression; homodimer
T1 sequence (F1M4A4 1-368): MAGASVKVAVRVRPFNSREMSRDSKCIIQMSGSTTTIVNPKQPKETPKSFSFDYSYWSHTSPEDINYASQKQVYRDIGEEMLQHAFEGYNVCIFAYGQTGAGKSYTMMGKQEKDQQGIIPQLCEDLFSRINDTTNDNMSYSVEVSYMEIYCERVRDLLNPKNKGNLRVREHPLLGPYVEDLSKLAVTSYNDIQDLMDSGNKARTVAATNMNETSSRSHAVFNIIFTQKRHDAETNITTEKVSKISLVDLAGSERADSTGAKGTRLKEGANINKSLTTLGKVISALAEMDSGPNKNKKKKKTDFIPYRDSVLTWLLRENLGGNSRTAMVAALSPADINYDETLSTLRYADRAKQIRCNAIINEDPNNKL

[2] = biological target: T2, KIF1A-406 (Rattus norvegicus, UniProt F1M4A4); assay: stopped-flow dissociation, ADP-bound motor flushed against […] mADP; type: binding; conditions: no microtubules; BRB80, pH 6.9, 25 °C; b26 prints the error as ± 0.005
T2 construct: motor head and neck linker, residues 1-368, followed by 61 residues of Drosophila melanogaster KHC neck coil (printed 'residues 445-405', probably 345-405) for dimerization; C-terminal His6; E. coli-type bacterial expression; homodimer
T2 sequence (F1M4A4 1-368): T1 sequence (F1M4A4 1-368)

[3] = biological target: T2, KIF1A-406; assay: stopped-flow nucleotide-triggered half-site release of mADP, Michaelis-Menten fit; type: biochemical; conditions: one-head-bound complex with 3 μM Taxol-stabilized microtubules, mADP in tethered head; BRB80 (80 mM PIPES, 1 mM MgCl2, pH 6.9), 25 °C; fit ± 95% CI; read-out: Experimental

Structure (SMILES)	Kd [1]	mADP dissociation rate constant [2]	Km [3]
Nc1ncnc2c1ncn2[C@@H]1O[C@H](COP(=O)(O)OP(=O)(O)O)[C@@H](O)[C@H]1O [ADP]	93 ± 204 µM	0.26 ± 0.001 s⁻¹	–
Nc1ncnc2c1ncn2[C@@H]1O[C@H](COP(=O)(O)OP(=O)(O)OP(=O)(O)O)[C@@H](O)[C@H]1O [ATP]	–	–	119 ± 21 µM
